Experimental data reported in patent USRE50563E1, “Use of an all-D-pentapeptide chemokine antagonist to reduce opioid dose in a person with pain” (Creative Bio-Peptides, Inc., priority 2017, dated 2025).
Like-named read-outs stand apart in the source and are kept apart here.

Tests used:
[1] = system: Streptozotocin (STZ) induced diabetic rats
Experimental: (§1) The induction of diabetes was confirmed 72 h after streptozotocin injection by measurement of blood glucose levels using Contour® blood glucose diagnostic kit (Bayer HealthCare, Canada). Body weight and blood glucose levels were measured before and 3 days after streptozotocin injection, once a week for three weeks after diabetes induction. Only rats having blood glucose concentration consistently higher than 300 mg/dl were used for the present study.
(§2) Appropriate concentration for each dose was adjusted accordingly.
Animals were placed in Plexiglas boxes on an elevated metal mesh floor and allowed 60 min for habituation before testing. […] Withdrawal thresholds of both paws were averaged as one single value per animal.
(§3) Assessment on the effects of RAP103 on mechanical and cold allodynia was performed between 2-4 hours following the drug administration.
(§4) All data were presented as means±SEM. Statistical analysis was performed by two-way ANOVA followed by Bonferroni post-tests. The criterion for statistical significance was P<0.05.

[2] = system: Streptozotocin (STZ) induced diabetic rats; conditions: oral gavage daily, FIGS. 2A-B
Experimental: as §1, §2
Cumulative scores were then obtained by summing the four scores for each rat, the minimum score being 0 (no response to any of the four trials) and the maximum possible score being 12 (repeated flicking and licking of paws on each of the four trials).
as §3, §4

[3] = system: cytokines, IL1β, TNFα; chemokines CCL2, CCL3; and chemokines receptors CCR2 and CCR5; conditions: 0.5 mg/kg, for 7 days, p.o., FIGS. 3A-F
Experimental: To test the hypothesis, we first used behavioral and molecular/cellular approaches to explore chronic pain development and inflammatory reaction in Streptozotocin (STZ) induced diabetic rats. […] CCL2 and CCL3 are two chemokines well known in mediating immune cell trafficking and immune response in the context of neuropathic pain.
as §1

[4] = system: Male, Sprague-Dawley rats; conditions: for morphine analgesia in an animal model of post-surgical pain (reversal of mechanical allodynia): RAP-103 0.5 mg/kg i.p. plus morphine 5.0 mg/kg s.c. vs morphine alone, 25 min post-surgery, FIG. 4

all-D-TTNYT [RAP-103]
established hypersensitivity in STZ rats ([1]; 0.5.-0.02 mg/Kg b.w., daily, for 7 days, mechanical and cold allodynia): complete reversal of established hypersensitivity
mechanical allodynia in rats with neuropathic pain ([1]; STZ diabetic rats, oral gavage daily, FIGS. 1A-B): reversed mechanical allodynia
cold allodynia in rats with neuropathic pain [2]: reversed cold allodynia
inflammation in the sciatic nerves of STZ rats (inflammatory mediators) [3]: reducing significantly all examined inflammatory mediators
inflammation in the sciatic nerves of STZ rats (inflammatory mediators) ([3]; listed as RAP103): significantly inhibited inflammation
morphine analgesia in an animal model of post-surgical pain (reversal of mechanical allodynia) [4]: statistically significantly greater analgesia
morphine analgesia in an animal model of post-surgical pain (reversal of mechanical allodynia) ([4]; listed as RAP103): potentiates morphine analgesia
shift to the left of the ED50 for morphine by addition of RAP-103 ([4]; RAP-103 0.5 mg/kg plus morphine 0.5 to 5.0 mg/kg, % reversal of mechanical allodynia at t=60 min, FIG. 5): about 2 fold
